Assay results as given in the supplement of paper PMC7017272.
± gives the standard deviation of the averaged measurements.

Experiments:
UT-SCC-24A [1] = assay: drug sensitivity score (DSS); higher = more sensitive; conditions: treatment time: 3 days
Description: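 HNSCC cell lines (500 cells/well, 384-well) were cultured on plastic, on top of (2D) or embedded (3D) in Matrigel or human leiomyoma matrix Myogel (500 ug/mL; Myogel 3D mixed with rat collagen I). Cells were treated for 3 days with 5 ten-fold concentrations of each drug, and viability was read by CellTiter-Glo. Suffixes _1/_2/_3 on drug names are replicates.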

UT-SCC-106A [2] = assay: maximal % inhibition of viability relative to DMSO; higher = stronger effect; conditions: treatment time: 3 days
Description: (§1)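 HNSCC cell lines (500 cells/well, 384-well) were cultured on plastic, on top of (2D) or embedded (3D) in Matrigel or human leiomyoma matrix Myogel (500 ug/mL; Myogel 3D mixed with rat collagen I). Cells were treated for 3 days with 5 ten-fold concentrations of each drug, and viability was read by CellTiter-Glo. Viability was normalised to DMSO and benzethonium chloride controls and fitted with the FIMM DSRT pipeline to give IC50 (nM), maximal % inhibition and DSS. Suffixes _1/_2/_3 are replicates. Only inhibition-mode (IC50) fits are kept.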

UT-SCC-14 = assay: as above; conditions: treatment time: 3 days
Description: as §1

UT-SCC-24B [3] = assay: as above; conditions: treatment time: 3 days
Description: as §1

UT-SCC-28 [4] = assay: as above; conditions: treatment time: 3 days
Description: as §1

UT-SCC-40 = assay: as above; conditions: treatment time: 3 days
Description: as §1

UT-SCC-42A = assay: as above; conditions: treatment time: 3 days
Description: as §1

UT-SCC-42B = assay: as above; conditions: treatment time: 3 days
Description: as §1

UT-SCC-44 = assay: as above; conditions: treatment time: 3 days
Description: as §1

UT-SCC-73 = assay: as above; conditions: treatment time: 3 days
Description: as §1

UT-SCC-81 = assay: as above; conditions: treatment time: 3 days
Description: as §1

UT-SCC-8 = assay: as above; conditions: treatment time: 3 days
Description: as §1

UT-SCC-24A [5] = assay: as above; conditions: treatment time: 3 days
Description: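 HNSCC cell lines (500 cells/well, 384-well) were cultured on plastic, on top of (2D) or embedded (3D) in Matrigel or human leiomyoma matrix Myogel (500 ug/mL; Myogel 3D mixed with rat collagen I). Cells were treated for 3 days with 5 ten-fold concentrations of each drug, and viability was read by CellTiter-Glo. Viability was normalised to DMSO (0% inhibition) and 100 uM benzethonium chloride (100% inhibition) controls and fitted with the FIMM DSRT pipeline to give IC50 (nM), maximal % inhibition and the drug sensitivity score (DSS). Suffixes _1/_2/_3 on drug names are replicates.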

UT-SCC-106A [6] = assay: relative IC50 (midpoint of the fitted curve; maximal inhibition may be below 50%); higher = less potent; conditions: treatment time: 3 days
How it was run: (§2)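 Viability was read with CellTiter-Glo 2.0 luminescence and scaled against vehicle (0.1% DMSO) and cell-killing control wells. The assay used HPV-negative HNSCC cell lines at 500 cells/well in 384-well plates, grown on plastic, on Matrigel or Myogel coatings (500 µg/mL), or embedded in Matrigel or Myogel plus rat collagen I, and treated for 3 days at five 10-fold concentrations. IC50, maximal inhibition and drug sensitivity score were derived from percent-inhibition dose–response curves fitted in the FIMM pipeline.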

UT-SCC-24B [7] = assay: as above; conditions: treatment time: 3 days
How it was run: as §2

UT-SCC-28 [8] = assay: as above; conditions: culture condition: on top of Matrigel; treatment time: 3 days
How it was run: as §2

[9] = culture condition: embedded in Matrigel
[10] = culture condition: embedded in Myogel + collagen I
[11] = culture condition: on top of Matrigel
[12] = culture condition: on top of Myogel
[13] = culture condition: plastic 2D (no matrix)

In the case of `COc1ccc(-c2cc3c(C)nc(N)nc3n([C@H]3CC[C@H](OCCO)CC3)c2=O)cn1`, the drug sensitivity score (UT-SCC-24A [1]; [9]) is reported as 17 ± 7.7 DSS, the drug sensitivity score (UT-SCC-24A [1]; [10]) is reported as 9.63 ± 6.9 DSS and the drug sensitivity score (UT-SCC-24A [1]; [11]) is reported as 11.9 ± 4.7 DSS. For the same compound, the drug sensitivity score (UT-SCC-24A [1]; [12]) was 5.83 ± 2.9 DSS, the drug sensitivity score (UT-SCC-24A [1]; [13]) was 11.4 ± 7.7 DSS and the “maximal % inhibition of viability” value (UT-SCC-106A [2]; [9]) was 72.2 ± 2.7%. The “maximal % inhibition of viability” value (UT-SCC-106A [2]; [10]) was 58.5 ± 8.7%, the “maximal % inhibition of viability” value (UT-SCC-106A [2]; [11]) was 75.6 ± 2.8% and the “maximal % inhibition of viability” value (UT-SCC-106A [2]; [12]) was 61.7 ± 13%. The “maximal % inhibition of viability” value (UT-SCC-106A [2]; [13]) was 76.8 ± 4.8%, the “maximal % inhibition of viability” value (UT-SCC-14; [9]) was 80.5 ± 3.8% and the “maximal % inhibition of viability” value (UT-SCC-14; [10]) was 67.7 ± 5.3%. The “maximal % inhibition of viability” value (UT-SCC-14; [11]) was 77.3 ± 1.4%, the “maximal % inhibition of viability” value (UT-SCC-14; [12]) was 67.5 ± 3.8% and the “maximal % inhibition of viability” value (UT-SCC-14; [13]) was 72.7 ± 3.6%. The “maximal % inhibition of viability” value (UT-SCC-24B [3]; [9]) was 99.6 ± 0.2%, the “maximal % inhibition of viability” value (UT-SCC-24B [3]; [10]) was 98.7 ± 0.36% and the “maximal % inhibition of viability” value (UT-SCC-24B [3]; [11]) was 99.57 ± 0.67%. For the same compound, the “maximal % inhibition of viability” value (UT-SCC-24B [3]; [12]) was 99 ± 1%, the “maximal % inhibition of viability” value (UT-SCC-24B [3]; [13]) was 99.73 ± 0.46% and the “maximal % inhibition of viability” value (UT-SCC-28 [4]; [9]) was 63.3 ± 13%. The “maximal % inhibition of viability” value (UT-SCC-28 [4]; [10]) was 65.3 ± 16%, the “maximal % inhibition of viability” value (UT-SCC-28 [4]; [11]) was 66 ± 3.7% and the “maximal % inhibition of viability” value (UT-SCC-28 [4]; [13]) was 56.8 ± 3.1%. The “maximal % inhibition of viability” value (UT-SCC-40; [9]) was 88.6 ± 7.3%, the “maximal % inhibition of viability” value (UT-SCC-40; [10]) was 74 ± 12% and the “maximal % inhibition of viability” value (UT-SCC-40; [11]) was 85.1 ± 7.9%. For the same compound, the “maximal % inhibition of viability” value (UT-SCC-40; [12]) was 64.1 ± 17%, the “maximal % inhibition of viability” value (UT-SCC-40; [13]) was 68 ± 15% and the “maximal % inhibition of viability” value (UT-SCC-42A; [9]) was 71.4 ± 9.7%. The “maximal % inhibition of viability” value (UT-SCC-42A; [10]) was 62.5 ± 12%, the “maximal % inhibition of viability” value (UT-SCC-42A; [11]) was 72.1 ± 7.3% and the “maximal % inhibition of viability” value (UT-SCC-42A; [12]) was 63.3 ± 12%. For the same compound, the “maximal % inhibition of viability” value (UT-SCC-42A; [13]) was 72.5 ± 6.5%, the “maximal % inhibition of viability” value (UT-SCC-42B; [9]) was 63.8 ± 11% and the “maximal % inhibition of viability” value (UT-SCC-42B; [11]) was 31.5 ± 7%. For the same compound, the “maximal % inhibition of viability” value (UT-SCC-42B; [12]) was 18.5 ± 13%, the “maximal % inhibition of viability” value (UT-SCC-42B; [13]) was 21.6 ± 12% and the “maximal % inhibition of viability” value (UT-SCC-44; [9]) was 45.9 ± 6.3%. For the same compound, the “maximal % inhibition of viability” value (UT-SCC-44; [10]) was 40.2 ± 19%, the “maximal % inhibition of viability” value (UT-SCC-44; [11]) was 44.7 ± 10% and the “maximal % inhibition of viability” value (UT-SCC-44; [12]) was 43 ± 11%. The “maximal % inhibition of viability” value (UT-SCC-44; [13]) was 43.2 ± 15%, the “maximal % inhibition of viability” value (UT-SCC-73; [9]) was 87.9 ± 5% and the “maximal % inhibition of viability” value (UT-SCC-73; [10]) was 79.9 ± 16%. The “maximal % inhibition of viability” value (UT-SCC-73; [11]) was 82.7 ± 12%, the “maximal % inhibition of viability” value (UT-SCC-73; [12]) was 80 ± 14% and the “maximal % inhibition of viability” value (UT-SCC-73; [13]) was 85.4 ± 6.6%. The “maximal % inhibition of viability” value (UT-SCC-81; [9]) was 94 ± 4.5%, the “maximal % inhibition of viability” value (UT-SCC-81; [10]) was 77.7 ± 13% and the “maximal % inhibition of viability” value (UT-SCC-81; [11]) was 89.7 ± 4.7%. The “maximal % inhibition of viability” value (UT-SCC-81; [12]) was 79.7 ± 8.8%, the “maximal % inhibition of viability” value (UT-SCC-81; [13]) was 81.7 ± 7.7% and the “maximal % inhibition of viability” value (UT-SCC-8; [9]) was 91.8 ± 9%. The “maximal % inhibition of viability” value (UT-SCC-8; [10]) was 71.3 ± 21%, the “maximal % inhibition of viability” value (UT-SCC-8; [11]) was 82.1 ± 19% and the “maximal % inhibition of viability” value (UT-SCC-8; [12]) was 78.7 ± 14%. The “maximal % inhibition of viability” value (UT-SCC-8; [13]) was 84 ± 14%, the “maximal % inhibition of viability” value (UT-SCC-24A [5]; [9]) was 79.2 ± 19% and the “maximal % inhibition of viability” value (UT-SCC-24A [5]; [10]) was 61.6 ± 18%. For the same compound, the “maximal % inhibition of viability” value (UT-SCC-24A [5]; [11]) was 71.5 ± 12%, the “maximal % inhibition of viability” value (UT-SCC-24A [5]; [12]) was 54.5 ± 16% and the “maximal % inhibition of viability” value (UT-SCC-24A [5]; [13]) was 72.1 ± 23%. For the same compound, the “relative IC50” value (UT-SCC-106A [6]; [9]) was 98.9 nM, the “relative IC50” value (UT-SCC-106A [6]; [13]) was 193 nM and the “relative IC50” value (UT-SCC-24B [7]; [10]) was 163 nM. The “relative IC50” value (UT-SCC-24B [7]; [11]) was 363 nM, the “relative IC50” value (UT-SCC-24B [7]; [12]) was 562 nM and the “relative IC50” value (UT-SCC-24B [7]; [13]) was 337 nM. For the same compound, the “relative IC50” value (UT-SCC-28 [8]) was 118 nM.
